Test results published in US20250281462A1, “THERAPEUTICALLY EFFECTIVE ORAL ADMINISTRATION OF A 2 ARYLBENZIMIDAZOLE” (Tranquis Therapeutics, Inc., priority 2021, published 2025).
Values joined by “and” are separate entries in the source; they are usually repeats but may differ in a detail not shown here. Identical values can stand only once. “Also recorded” adds a separate entry of the source. Like-named read-outs stand apart in the source and are kept apart here.

Key:
[1] = Tissue concentrations (plasma, brain, liver) after single oral dose 25 mg/kg in mice; assay type: in vivo
Procedure: In a first experiment, a total of 3-4 male C57BL6/J mice were administered a single dose of TQS-168 by oral gavage at 25 mg/kg. TQS-168 was prepared for oral gavage as a suspension with 0.5% methylcellulose in PBS.
Tissues were collected at various time points after dosing and processed for LC-MS analyses of TQS-168 concentrations. The tissues analyzed include plasma, brain, and liver. Animals were perfused thoroughly with 20 mL ice cold PBS before brain and liver collection to remove contaminating blood. Data are shown in Table 1 (TQS-168 concentrations in ng/mL).

[2] = Plasma concentrations after single intravenous dose in rats; assay type: in vivo; settings: male, Sprague Dawley, rat, 0.5 mg/kg intravenous
Procedure: A total of 3 male, 7-9 week old, Sprague Dawley rats from Vital River were administered a single intravenous dose of TQS-168 at 0.5 mg/kg, in a volume of 0.5 mL/kg. TQS-168 was prepared in solution of 31.6% DMAC+36.8% ethanol+31.6% propylene glycol.
Blood samples were collected at 0.5, 3, 10, 30, 60, 120, 240, 480 and 720 minutes after a single dose of TQS-168 and then processed. Blood samples were collected via saphenous vein puncture into a K2EDTA tube, centrifuged at 4° C. at 4600 rpm for 5 minutes, and plasma collected and stored at less than −20° C. prior to being analyzed by LC-MS for TQS-168 concentrations. Data are presented as concentrations of TQS-168 (ng/mL) in plasma and graphed in FIG. 15 (individual rats) and 16 (average).

IL-6 = assay: LPS-stimulated IL-6 secretion from human PBMCs (ELISA); assay type: cell-based; settings: LPS 1 ng/mL, 24 h
Procedure: The principal metabolites from liver metabolism of TQS-168 following oral administration have been described. See Sun et al., Rapid Commun. Mass Spectrom. 32:480-488 (2018), incorporated herein by reference. We synthesized the phase 1 metabolites from liver metabolism of TQS-168 illustrated in FIG. 20 and tested them for the ability to inhibit LPS-stimulated secretion of pro-inflammatory cytokines in vitro.
Briefly, 20,000 human PBMC were aliquoted into each well. LPS was added at 1 ng/mL and the cells incubated for 24 h in the presence of LPS and TQS-168 or one of its metabolites. Readouts were human IL-6 ELISA and human TNFα ELISA. For assay, supernatants were diluted in culture medium. The supernatant dilution for the IL-6 ELISA was 1:8, and the 1:2 for the human TNFα ELISA.

[3] = 25 mg/kg p.o., 0.0 minutes, individual animal, 25 mg/kg
[4] = 25 mg/kg p.o., 15.0 minutes, individual animal, 25 mg/kg
[5] = 25 mg/kg p.o., 60.0 minutes, individual animal, 25 mg/kg
[6] = 25 mg/kg p.o., 120.0 minutes, individual animal, 25 mg/kg
[7] = 25 mg/kg p.o., 240.0 minutes, individual animal, 25 mg/kg
[8] = 25 mg/kg p.o., 480.0 minutes, individual animal, 25 mg/kg
[9] = 25 mg/kg p.o., 1440.0 minutes, individual animal, 25 mg/kg
[10] = 25 mg/kg p.o., 2880.0 minutes, individual animal, 25 mg/kg

Compound: CC(C)(C)c1ccc(-c2nc3ccccc3[nH]2)cc1 [TQS-168, 2-(4-tert-butylphenyl)-1H-benzimidazole]
- concentration in brain [1, 3]: 4.2 ng/mL and 10.7 ng/mL and 22.8 ng/mL
- concentration in liver [1, 3]: 2.4 ng/mL and 0.4 ng/mL and 0.7 ng/mL
- concentration in plasma [1, 3]: 0.5 ng/mL and 0.1 ng/mL and 0.0 ng/mL
- concentration in brain [1, 4]: 21.6 ng/mL and 42.0 ng/mL and 35.2 ng/mL
- concentration in liver [1, 4]: 268.0 ng/mL and 496.0 ng/mL and 575.0 ng/mL and 431.5 ng/mL
- concentration in plasma [1, 4]: 12.6 ng/mL and 18.6 ng/mL and 14.6 ng/mL
- concentration in brain [1, 5]: 253.0 ng/mL and 755.0 ng/mL and 530.0 ng/mL and 630.0 ng/mL
- concentration in liver [1, 5]: 1060.0 ng/mL and 2725.0 ng/mL and 1940.0 ng/mL and 2175.0 ng/mL
- concentration in plasma [1, 5]: 107.0 ng/mL and 47.0 ng/mL and 57.4 ng/mL and 86.0 ng/mL
- concentration in brain [1, 6]: 282.0 ng/mL and 150.5 ng/mL and 242.5 ng/mL
- concentration in liver [1, 6]: 305.5 ng/mL and 2080.0 ng/mL and 1070.0 ng/mL and 1725.0 ng/mL
- concentration in plasma [1, 6]: 110.0 ng/mL and 43.8 ng/mL and 88.6 ng/mL and 131.0 ng/mL
- concentration in brain [1, 7]: 399.0 ng/mL and 143.0 ng/mL and 188.0 ng/mL and 10.6 ng/mL
- concentration in liver [1, 7]: 60.5 ng/mL and 1520.0 ng/mL and 216.5 ng/mL and 680.0 ng/mL
- concentration in plasma [1, 7]: 46.8 ng/mL and 175.0 ng/mL and 3.4 ng/mL and 14.0 ng/mL
- concentration in brain [1, 8]: 34.8 ng/mL and 20.9 ng/mL and 5.3 ng/mL and 18.2 ng/mL
- concentration in liver [1, 8]: 431.5 ng/mL and 50.5 ng/mL and 37.6 ng/mL and 147.5 ng/mL
- concentration in plasma [1, 8]: 6.0 ng/mL and 2.7 ng/mL and 1.8 ng/mL and 10.9 ng/mL
- concentration in plasma ([1]; 25 mg/kg p.o., 1440.0 minutes, individual animal): 0.0 ng/mL
- concentration in brain [1, 9]: 36.3 ng/mL and 8.5 ng/mL and 10.5 ng/mL and 55.5 ng/mL
- concentration in liver [1, 9]: 4.0 ng/mL and 2.6 ng/mL and 0.8 ng/mL and 8.7 ng/mL
- concentration in plasma ([1]; 25 mg/kg p.o., 2880.0 minutes, individual animal): 0.0 ng/mL
- concentration in brain [1, 10]: 0.0 ng/mL and 3.0 ng/mL and 2.5 ng/mL and 0.7 ng/mL
- concentration in liver [1, 10]: 0.0 ng/mL (3×) and 1.0 ng/mL
- concentration at 0 min ([1]; male, C57BL6/J, mouse, brain, po, 25 mg/kg, 25 mg/kg p.o., 0.0 minutes, average, read-out: concentration in brain): 12.6 ng/mL
- concentration at 15 min ([1]; male, C57BL6/J, mouse, brain, po, 25 mg/kg, 25 mg/kg p.o., 15.0 minutes, average, read-out: concentration in brain): 34.7 ng/mL
- concentration at 15 minutes ([1]; male, C57BL6/J, mouse, brain, po, 25 mg/kg, 25 mg/kg p.o., 15.0 minutes, individual animal): 40.2 ng/mL
- concentration at 60 min ([1]; male, C57BL6/J, mouse, brain, po, 25 mg/kg, 25 mg/kg p.o., 60.0 minutes, average, read-out: concentration in brain): 542 ng/mL
- concentration at 120 min ([1]; male, C57BL6/J, mouse, brain, po, 25 mg/kg, 25 mg/kg p.o., 120.0 minutes, average, read-out: concentration in brain): 236 ng/mL
- concentration at 120 minutes ([1]; male, C57BL6/J, mouse, brain, po, 25 mg/kg, 25 mg/kg p.o., 120.0 minutes, individual animal): 270 ng/mL
- concentration at 240 min ([1]; male, C57BL6/J, mouse, brain, po, 25 mg/kg, 25 mg/kg p.o., 240.0 minutes, average, read-out: concentration in brain): 185 ng/mL
- concentration at 480 min ([1]; male, C57BL6/J, mouse, brain, po, 25 mg/kg, 25 mg/kg p.o., 480.0 minutes, average, read-out: concentration in brain): 19.8 ng/mL
- concentration at 1440 min ([1]; male, C57BL6/J, mouse, brain, po, 25 mg/kg, 25 mg/kg p.o., 1440.0 minutes, average, read-out: concentration in brain): 27.7 ng/mL
- concentration at 2880 min ([1]; male, C57BL6/J, mouse, brain, po, 25 mg/kg, 25 mg/kg p.o., 2880.0 minutes, average, read-out: concentration in brain): 1.5 ng/mL
- concentration at 0 min ([1]; male, C57BL6/J, mouse, liver, po, 25 mg/kg, 25 mg/kg p.o., 0.0 minutes, average, read-out: concentration in liver): 1.2 ng/mL
- concentration at 15 min ([1]; male, C57BL6/J, mouse, liver, po, 25 mg/kg, 25 mg/kg p.o., 15.0 minutes, average, read-out: concentration in liver): 443 ng/mL
- concentration at 60 min ([1]; male, C57BL6/J, mouse, liver, po, 25 mg/kg, 25 mg/kg p.o., 60.0 minutes, average, read-out: concentration in liver): 1980 ng/mL
- concentration at 120 min ([1]; male, C57BL6/J, mouse, liver, po, 25 mg/kg, 25 mg/kg p.o., 120.0 minutes, average, read-out: concentration in liver): 1300 ng/mL
- concentration at 240 min ([1]; male, C57BL6/J, mouse, liver, po, 25 mg/kg, 25 mg/kg p.o., 240.0 minutes, average, read-out: concentration in liver): 619 ng/mL
- concentration at 480 min ([1]; male, C57BL6/J, mouse, liver, po, 25 mg/kg, 25 mg/kg p.o., 480.0 minutes, average, read-out: concentration in liver): 167 ng/mL
- concentration at 1440 min ([1]; male, C57BL6/J, mouse, liver, po, 25 mg/kg, 25 mg/kg p.o., 1440.0 minutes, average, read-out: concentration in liver): 4 ng/mL
- concentration at 2880 min ([1]; male, C57BL6/J, mouse, liver, po, 25 mg/kg, 25 mg/kg p.o., 2880.0 minutes, average, read-out: concentration in liver): 0.3 ng/mL
- Cmax ([1]; male, C57BL6/J, mouse, plasma, 25 mg/kg single oral dose): 93.4 ng/mL and 370 nM
- concentration at 0 min ([1]; male, C57BL6/J, mouse, plasma, po, 25 mg/kg, 25 mg/kg p.o., 0.0 minutes, average, read-out: concentration in plasma): 0.2 ng/mL
- concentration at 15 min ([1]; male, C57BL6/J, mouse, plasma, po, 25 mg/kg, 25 mg/kg p.o., 15.0 minutes, average, read-out: concentration in plasma): 16.2 ng/mL
- concentration at 15 min ([1]; male, C57BL6/J, mouse, plasma, po, 25 mg/kg, 25 mg/kg p.o., 15.0 minutes, individual animal, read-out: concentration in plasma): 18.8 ng/mL
- concentration at 60 min ([1]; male, C57BL6/J, mouse, plasma, po, 25 mg/kg, 25 mg/kg p.o., 60.0 minutes, average, read-out: concentration in plasma): 74.4 ng/mL
- concentration at 120 min ([1]; male, C57BL6/J, mouse, plasma, po, 25 mg/kg, 25 mg/kg p.o., 120.0 minutes, average, read-out: concentration in plasma): 93.4 ng/mL
- concentration at 240 min ([1]; male, C57BL6/J, mouse, plasma, po, 25 mg/kg, 25 mg/kg p.o., 240.0 minutes, average, read-out: concentration in plasma): 59.8 ng/mL
- concentration at 480 min ([1]; male, C57BL6/J, mouse, plasma, po, 25 mg/kg, 25 mg/kg p.o., 480.0 minutes, average, read-out: concentration in plasma): 5.3 ng/mL
- concentration at 1440 min ([1]; male, C57BL6/J, mouse, plasma, po, 25 mg/kg, 25 mg/kg p.o., 1440.0 minutes, average, read-out: concentration in plasma): 0 ng/mL
- concentration at 1440 min ([1]; male, C57BL6/J, mouse, plasma, po, 25 mg/kg, 25 mg/kg p.o., 1440.0 minutes, individual animal, read-out: concentration in plasma): 0 ng/mL
- concentration at 2880 min ([1]; male, C57BL6/J, mouse, plasma, po, 25 mg/kg, 25 mg/kg p.o., 2880.0 minutes, average, read-out: concentration in plasma): 0 ng/mL
- concentration at 2880 min ([1]; male, C57BL6/J, mouse, plasma, po, 25 mg/kg, 25 mg/kg p.o., 2880.0 minutes, individual animal, read-out: concentration in plasma): 0 ng/mL
- half-life [2]: 9.72 min
- clearance ([2]; read-out: clearance rate (converted)): 155 mL/min/kg

Compound: CC(C)(C)c1ccc(-c2nc3cc(O)ccc3[nH]2)cc1 [TQS-621]
- inhibition of LPS-stimulated IL-6 secretion (IL-6): potently inhibits; also recorded: potent inhibitor
